The record followed here is paper PMC5926742 (Japanese Journal of Cancer Research : Gann, 2001).

Molecules are shown by their SMILES. pIC50: −log10 of the molar value.

In the assay the target is DNA polymerase β (Bos taurus, UniProt Q27958). In words: [methyl-3H]TTP incorporation into activated DNA, DE81 paper disc. The class given is biochemical.

In the case of `Nc1ccn([C@@H]2O[C@H](COP(=O)(O)OP(=O)(O)OP(=O)(O)O)[C@@H](O)C2(F)F)c(=O)n1` [dFdCTP], the pIC50 – broadly, the IC50 on a negative log10 scale, so that one unit is a factor of ten – is 3.35.

Take `Nc1ccn([C@H]2CC[C@@H](COP(=O)(O)OP(=O)(O)OP(=O)(O)O)O2)c(=O)n1` [ddCTP]: the pIC50 is 3.62. Against the preceding compound, the pIC50 is 0.27 log units higher.
